Data as given in PubChem BioAssay (NCI).
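Test compounds were applied to cells in 96-well plates for 48 hours at 5 doses. At the TGI there is no net growth.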

Assays:
Test in all cases: NCI tumour cell line growth inhibition, 48 h
MALME-3M melanoma = tested on: MALME-3M melanoma
SF-539 CNS = tested on: SF-539 CNS
MDA-MB-435 = tested on: MDA-MB-435
LOX IMVI melanoma = tested on: LOX IMVI melanoma
KM12 colon = tested on: KM12 colon
UACC-62 melanoma = tested on: UACC-62 melanoma
SW-620 colon = tested on: SW-620 colon
HL-60(TB) leukemia = tested on: HL-60(TB) leukemia
HOP-92 NSCLC = tested on: HOP-92 NSCLC
SR leukemia = tested on: SR leukemia
SK-MEL-2 melanoma = tested on: SK-MEL-2 melanoma
UO-31 renal = tested on: UO-31 renal
IGROV1 ovarian = tested on: IGROV1 ovarian
HCT-15 colon = tested on: HCT-15 colon
HOP-62 NSCLC = tested on: HOP-62 NSCLC
COLO 205 colon = tested on: COLO 205 colon
DU-145 prostate = tested on: DU-145 prostate
NCI-H522 lung = tested on: NCI-H522 lung
SK-MEL-5 melanoma = tested on: SK-MEL-5 melanoma
RXF 393 renal = tested on: RXF 393 renal
HCC-2998 colon = tested on: HCC-2998 colon
HT29 colon = tested on: HT29 colon
T-47D breast = tested on: T-47D breast
RPMI-8226 leukemia = tested on: RPMI-8226 leukemia
MOLT-4 leukemia = tested on: MOLT-4 leukemia
SF-295 CNS = tested on: SF-295 CNS
EKVX NSCLC = tested on: EKVX NSCLC
ACHN renal = tested on: ACHN renal
SK-MEL-28 melanoma = tested on: SK-MEL-28 melanoma
NCI-H23 lung = tested on: NCI-H23 lung
NCI/ADR-RES ovarian = tested on: NCI/ADR-RES ovarian
MDA-N = tested on: MDA-N
A549 NSCLC = tested on: A549 NSCLC
MCF7 breast = tested on: MCF7 breast
OVCAR-8 ovarian = tested on: OVCAR-8 ovarian
MDA-MB-231 breast = tested on: MDA-MB-231 breast
SNB-75 CNS = tested on: SNB-75 CNS
CAKI-1 renal = tested on: CAKI-1 renal
OVCAR-4 ovarian = tested on: OVCAR-4 ovarian
M14 melanoma = tested on: M14 melanoma
786-0 renal = tested on: 786-0 renal
CCRF-CEM leukemia = tested on: CCRF-CEM leukemia
K-562 leukemia = tested on: K-562 leukemia
UACC-257 melanoma = tested on: UACC-257 melanoma
SF-268 CNS = tested on: SF-268 CNS
SN12C renal = tested on: SN12C renal
OVCAR-5 ovarian = tested on: OVCAR-5 ovarian
HS 578T breast = tested on: HS 578T breast
U251 CNS = tested on: U251 CNS
A498 renal = tested on: A498 renal
PC-3 prostate = tested on: PC-3 prostate
HCT-116 colon = tested on: HCT-116 colon
NCI-H226 lung = tested on: NCI-H226 lung
SK-OV-3 ovarian = tested on: SK-OV-3 ovarian
SNB-19 CNS = tested on: SNB-19 CNS
TK-10 renal = tested on: TK-10 renal
NCI-H460 lung = tested on: NCI-H460 lung
OVCAR-3 ovarian = tested on: OVCAR-3 ovarian

For `CN(C)/N=C1\CC(c2ccccc2)C(C#N)(C#N)C1(C#N)C#N` (centres undefined), the TGI (MALME-3M melanoma) was 34.2 µM, the TGI (SF-539 CNS) was over 100 µM and the TGI (MDA-MB-435) was 81.8 µM. The TGI (LOX IMVI melanoma) was 79.2 µM, the TGI (KM12 colon) was over 100 µM and the TGI (UACC-62 melanoma) was 41.8 µM. The TGI (SW-620 colon) was 36.2 µM, the TGI (HL-60(TB) leukemia) was over 100 µM and the TGI (HOP-92 NSCLC) was 29.7 µM. It also gave a TGI (SR leukemia) of over 100 µM, a TGI (SK-MEL-2 melanoma) of 40 µM and a TGI (UO-31 renal) of 34.4 µM. The TGI (IGROV1 ovarian) was 45.3 µM, the TGI (HCT-15 colon) was 30.1 µM and the TGI (HOP-62 NSCLC) was 59 µM. It also gave a TGI (COLO 205 colon) of 22.1 µM, a TGI (DU-145 prostate) of 36.2 µM and a TGI (NCI-H522 lung) of 35.3 µM. It also gave a TGI (SK-MEL-5 melanoma) of 24.4 µM, a TGI (RXF 393 renal) of 54.5 µM and a TGI (HCC-2998 colon) of 33.1 µM. For the same compound, the TGI (HT29 colon) was 50.5 µM, the TGI (T-47D breast) was 50.3 µM and the TGI (RPMI-8226 leukemia) was 47.2 µM. For the same compound, the TGI (MOLT-4 leukemia) was 56.5 µM, the TGI (SF-295 CNS) was 48.1 µM and the TGI (EKVX NSCLC) was over 100 µM. The TGI (ACHN renal) was 34.8 µM, the TGI (SK-MEL-28 melanoma) was 46 µM and the TGI (NCI-H23 lung) was 53.1 µM. The TGI (NCI/ADR-RES ovarian) was 72.1 µM, the TGI (MDA-N) was 40 µM and the TGI (A549 NSCLC) was over 100 µM. For the same compound, the TGI (MCF7 breast) was over 100 µM, the TGI (OVCAR-8 ovarian) was 41.9 µM and the TGI (MDA-MB-231 breast) was 36.9 µM. For the same compound, the TGI (SNB-75 CNS) was 33.9 µM, the TGI (CAKI-1 renal) was 21.9 µM and the TGI (OVCAR-4 ovarian) was over 100 µM. It also gave a TGI (M14 melanoma) of 34.3 µM, a TGI (786-0 renal) of 42.3 µM and a TGI (CCRF-CEM leukemia) of over 100 µM. It also gave a TGI (K-562 leukemia) of over 100 µM, a TGI (UACC-257 melanoma) of 34.3 µM and a TGI (SF-268 CNS) of 35.6 µM. The TGI (SN12C renal) was 36.9 µM, the TGI (OVCAR-5 ovarian) was 59.1 µM and the TGI (HS 578T breast) was 75.1 µM. The TGI (U251 CNS) was over 100 µM, the TGI (A498 renal) was 33.8 µM and the TGI (PC-3 prostate) was 35.6 µM. For the same compound, the TGI (HCT-116 colon) was 39.8 µM, the TGI (NCI-H226 lung) was 84.7 µM and the TGI (SK-OV-3 ovarian) was over 100 µM. It also gave a TGI (SNB-19 CNS) of 54.1 µM and a TGI (TK-10 renal) of 32.4 µM.

For `Clc1ccc(OCc2nn3c(CCc4nnc5sc(COc6ccc(Cl)cc6)nn45)nnc3s2)cc1`, the TGI (NCI-H460 lung) was 51.4 µM, the TGI (SF-539 CNS) was over 100 µM and the TGI (MDA-MB-435) was over 100 µM. For the same compound, the TGI (LOX IMVI melanoma) was over 100 µM, the TGI (KM12 colon) was 60.2 µM and the TGI (SW-620 colon) was over 100 µM. For the same compound, the TGI (HL-60(TB) leukemia) was 72 µM, the TGI (SK-MEL-2 melanoma) was 87.8 µM and the TGI (UO-31 renal) was 3.03 µM. For the same compound, the TGI (IGROV1 ovarian) was 55.1 µM, the TGI (HCT-15 colon) was 95.8 µM and the TGI (HOP-62 NSCLC) was over 100 µM. The TGI (DU-145 prostate) was 44.2 µM, the TGI (NCI-H522 lung) was 30.1 µM and the TGI (SK-MEL-5 melanoma) was 23.7 µM. For the same compound, the TGI (RXF 393 renal) was 61.2 µM, the TGI (HT29 colon) was over 100 µM and the TGI (T-47D breast) was over 100 µM. It also gave a TGI (RPMI-8226 leukemia) of over 100 µM, a TGI (MOLT-4 leukemia) of over 100 µM and a TGI (SF-295 CNS) of over 100 µM. It also gave a TGI (EKVX NSCLC) of over 100 µM, a TGI (ACHN renal) of 41 µM and a TGI (SK-MEL-28 melanoma) of over 100 µM. The TGI (NCI-H23 lung) was 72.1 µM, the TGI (NCI/ADR-RES ovarian) was 37.5 µM and the TGI (MDA-N) was over 100 µM. It also gave a TGI (MCF7 breast) of 92.8 µM, a TGI (OVCAR-8 ovarian) of 35.8 µM and a TGI (MDA-MB-231 breast) of 61.8 µM. For the same compound, the TGI (CAKI-1 renal) was 12.8 µM, the TGI (OVCAR-4 ovarian) was 57.7 µM and the TGI (M14 melanoma) was over 100 µM. For the same compound, the TGI (786-0 renal) was over 100 µM, the TGI (CCRF-CEM leukemia) was over 100 µM and the TGI (K-562 leukemia) was over 100 µM. The TGI (UACC-257 melanoma) was 82.9 µM, the TGI (SF-268 CNS) was over 100 µM and the TGI (OVCAR-5 ovarian) was over 100 µM. The TGI (HS 578T breast) was over 100 µM, the TGI (U251 CNS) was 54.6 µM and the TGI (A498 renal) was 42.8 µM. For the same compound, the TGI (PC-3 prostate) was 53.1 µM, the TGI (HCT-116 colon) was 85.4 µM and the TGI (OVCAR-3 ovarian) was 65.8 µM. It also gave a TGI (NCI-H226 lung) of over 100 µM, a TGI (SK-OV-3 ovarian) of over 100 µM and a TGI (TK-10 renal) of 80.7 µM.
